In patent US6939565B2, “Protease inhibitors of the coagulation cascade isolated from Dysidea sponges” (Pharmacia Corporation, priority 2001, dated 2005):

Legend:
Assay type in all cases: biochemical
[1] = system: Trypsin; experiment: HPLC-PDA-MS-bioassay, trypsin inhibition
Method: (§1) An aliquot of sample was injected onto C18 reversed-phase column with flow rate of 1 mL/min. Mass spectra were recorded from 150 to 1000 amu in both positive and negative modes using electrospray ionization. A splitter was attached immediately after the HPLC column so that a fraction of the eluent was directed towards the electrospray source. The remaining fraction was collected in deep-well plates. The plates were dried overnight and biassayed.

[2] = target: Xa (Homo sapiens, UniProt P00742); experiment: HPLC-PDA-MS-bioassay, factor Xa inhibition
Method: as §1

[3] = target: T1, Thrombin (Homo sapiens, UniProt P00734); experiment: HPLC-PDA-MS-bioassay, thrombin inhibition
T1 construct: Xa with factor Va converts prothrombin (II) to thrombin (IIa)
Method: as §1

[4] = target: T2, TF/VIIa (Homo sapiens, UniProt P08709); experiment: Factor VIIa/TF inhibitory assay (chromogenic substrate, OD 405 nm); conditions: recombinant human factor VIIa with recombinant soluble tissue factor
T2 construct: recombinant human factor VIIa
Method: To determine inhibitory activity, the compound having structure (1) was combined with recombinant human factor VIIa in black clear bottom well plates followed by a 10 minute room temperature incubation. Recombinant soluble tissue factor was then added followed by a 15 minute room temperature incubation. Finally, chromozymen tPA substrate was added and the plates were immediately read at 405 nm to determine background absorbance. After incubation, the rate of hydrolysis of the substrate was measured by monitoring the reaction at 405 nm for the release of p-nitroaniline. Percent inhibition of TF/VIIa activity was calculated from OD 405 nm value from the experimental and control sample. All hits 50% of control and less were confirmed and requested for IC50 values.
as §1

Sequence of Xa (P00742 41-179 limits assumed): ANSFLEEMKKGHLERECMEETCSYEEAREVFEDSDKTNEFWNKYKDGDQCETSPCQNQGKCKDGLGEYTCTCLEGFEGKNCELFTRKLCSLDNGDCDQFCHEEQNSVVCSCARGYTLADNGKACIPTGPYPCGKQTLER
Sequence of Xa (P00742 235-488 limits assumed): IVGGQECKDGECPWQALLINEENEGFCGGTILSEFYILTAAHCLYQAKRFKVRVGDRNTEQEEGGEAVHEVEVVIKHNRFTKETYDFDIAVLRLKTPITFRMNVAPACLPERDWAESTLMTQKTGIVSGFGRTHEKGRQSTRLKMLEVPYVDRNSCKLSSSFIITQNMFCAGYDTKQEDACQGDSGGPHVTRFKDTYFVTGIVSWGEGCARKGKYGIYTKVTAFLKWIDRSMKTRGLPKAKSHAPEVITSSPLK
T2 sequence (P08709 61-212 limits assumed): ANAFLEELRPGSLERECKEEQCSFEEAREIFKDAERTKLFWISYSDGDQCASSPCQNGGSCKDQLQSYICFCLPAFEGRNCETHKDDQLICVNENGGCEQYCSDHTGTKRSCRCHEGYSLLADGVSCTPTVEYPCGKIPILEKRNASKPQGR
T2 sequence (P08709 213-466 limits assumed): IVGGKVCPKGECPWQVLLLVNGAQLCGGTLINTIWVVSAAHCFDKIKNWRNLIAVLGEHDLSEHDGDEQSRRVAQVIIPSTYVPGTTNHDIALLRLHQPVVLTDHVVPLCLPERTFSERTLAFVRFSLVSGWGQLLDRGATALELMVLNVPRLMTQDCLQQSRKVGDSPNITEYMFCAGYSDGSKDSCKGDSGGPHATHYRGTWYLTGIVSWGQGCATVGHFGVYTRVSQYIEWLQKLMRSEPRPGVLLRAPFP
T2 sequence (P13726 33-251 partner limits assumed): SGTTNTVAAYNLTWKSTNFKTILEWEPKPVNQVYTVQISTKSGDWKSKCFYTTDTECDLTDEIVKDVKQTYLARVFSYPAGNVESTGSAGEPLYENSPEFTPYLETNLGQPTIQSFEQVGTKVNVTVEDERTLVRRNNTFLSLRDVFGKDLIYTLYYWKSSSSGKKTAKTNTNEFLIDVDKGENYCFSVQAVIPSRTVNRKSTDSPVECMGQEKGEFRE

IC50 [1]: 37 nM
IC50 [2]: 200 nM
IC50 [3]: 4 nM
IC50 [4]: 9 nM
SMILES: COC(COS(=O)(=O)O)C(=O)NC(C(=O)N1C(C(=O)NCCC2=CCN(C(=N)N)C2)CC2CC(O)C(O)CC21)C(Cl)C(C)C (stereo not shown) [Structure 1]
